# Source: the supplement of paper PMC6045584
# ± gives the standard deviation of the averaged measurements.
# What was measured:
# [1] = compound: Cc1ccc(NC(=O)c2ccc(CN3CCN(C)CC3)cc2)cc1Nc1nccc(-c2cccnc2)n1 [IMATINIB]; assay: surviving fraction relative to DMSO-only wells; higher = less growth inhibition; conditions: exposure time: 5 days
# Method in brief: (§1)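 Inhibitors were tested at 0.5, 1, 5, 10, 50, 100, 500 and 1000 nM, applied continuously for five days beginning 24 hours after log-phase tumour cells were seeded at 250–500 per well in 384-well plates. CellTiter-Glo luminescence served as the viability measure, expressed as surviving fraction against the median of DMSO-only wells. Each line, screened three times, was kept only with replicate Pearson r >0.7 and median Z' >0.3.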
# [2] = compound: C[C@H](CN(C)C)Oc1nc(Nc2cc3cccc(Cl)c3cn2)cnc1C#N; assay: as above; conditions: exposure time: 5 days
# Method in brief: as §1
Test System,surviving fraction ([1]; 0.5 nM),surviving fraction ([1]; 1 nM),surviving fraction ([1]; 5 nM),surviving fraction ([1]; 10 nM),surviving fraction ([1]; 50 nM),surviving fraction ([1]; 100 nM),surviving fraction ([1]; 500 nM),surviving fraction ([1]; 1000 nM),surviving fraction ([2]; 0.5 nM),surviving fraction ([2]; 1 nM),surviving fraction ([2]; 5 nM),surviving fraction ([2]; 10 nM),surviving fraction ([2]; 50 nM),surviving fraction ([2]; 100 nM),surviving fraction ([2]; 500 nM),surviving fraction ([2]; 1000 nM)
RDES SOFT TISSUE,1.37 ± 0.084,1.45 ± 0.048,1.21 ± 0.1,1.22 ± 0.019,1.12 ± 0.1,1.21 ± 0.1,1.24 ± 0.13,1.18 ± 0.082,1.28 ± 0.031,1.37 ± 0.031,1.3 ± 0.14,1.2 ± 0.12,1.17 ± 0.086,1.32 ± 0.041,1.33 ± 0.1,1.38 ± 0.13
S68 BREAST,0.783 ± 0.22,0.996 ± 0.18,1.13 ± 0.17,–,1.25 ± 0.47,1.28 ± 0.29,1.11 ± 0.28,0.868 ± 0.081,0.922 ± 0.12,1.07 ± 0.076,1.15 ± 0.062,0.966 ± 0.065,0.874 ± 0.14,0.652 ± 0.052,0.153 ± 0.0038,0.114 ± 0.0055
SAOS2 BONE,1.14 ± 0.031,1.14 ± 0.056,–,1.22 ± 0.063,1.22 ± 0.079,1.2 ± 0.075,1.16 ± 0.029,1.17 ± 0.097,1.18 ± 0.055,1.19 ± 0.047,1.17 ± 0.058,1.137 ± 0.01,1.39 ± 0.1,1.32 ± 0.068,1.08 ± 0.12,0.944 ± 0.042
SCC003 HEADNECK,1.1 ± 0.07,1.1 ± 0.037,1.15 ± 0.036,–,1.09 ± 0.033,1.18 ± 0.045,1.13 ± 0.062,1.12 ± 0.075,1.04 ± 0.09,1.06 ± 0.022,1.06 ± 0.055,1.05 ± 0.054,1.05 ± 0.079,1.1 ± 0.018,0.848 ± 0.011,0.97 ± 0.12
SCC36 HEADNECK,1.03 ± 0.11,1.04 ± 0.18,1.09 ± 0.12,–,1.11 ± 0.024,–,0.886 ± 0.066,–,1.05 ± 0.03,1.07 ± 0.038,0.991 ± 0.065,1.15 ± 0.055,1.07 ± 0.041,1.13 ± 0.042,0.427 ± 0.053,0.313 ± 0.017
SCC47 HEADNECK,1.12 ± 0.017,1.2 ± 0.065,1.18 ± 0.072,1.19 ± 0.013,1.19 ± 0.025,1.25 ± 0.1,1.22 ± 0.11,1.21 ± 0.028,1.06 ± 0.052,1.06 ± 0.091,1.06 ± 0.065,1.11 ± 0.054,1.14 ± 0.059,1.12 ± 0.1,0.671 ± 0.049,0.925 ± 0.0085
SCC90 HEADNECK,–,–,1.07 ± 0.011,1.01 ± 0.073,1.17 ± 0.076,1.14 ± 0.08,1.17 ± 0.067,1.26 ± 0.082,1.05 ± 0.08,1.02 ± 0.082,1.02 ± 0.09,0.936 ± 0.1,0.991 ± 0.038,0.911 ± 0.034,0.189 ± 0.03,0.215 ± 0.021
SG27 HEADNECK,–,–,1.02 ± 0.16,1.13 ± 0.088,1.01 ± 0.079,1.17 ± 0.21,1.09 ± 0.18,1.14 ± 0.068,1.14 ± 0.17,0.995 ± 0.085,1.11 ± 0.12,0.997 ± 0.04,1.1 ± 0.028,1.03 ± 0.065,1.16 ± 0.062,1.15 ± 0.097
SG28 HEADNECK,1.25 ± 0.093,1.11 ± 0.12,–,–,–,–,1.18 ± 0.11,1.14 ± 0.096,1.02 ± 0.033,1.15 ± 0.033,0.996 ± 0.05,1.09 ± 0.19,1.04 ± 0.069,1.22 ± 0.31,1.11 ± 0.018,0.959 ± 0.18
